Laboratory results published in PMC9394307, “Discovery of Putative Dual Inhibitor of Tubulin and EGFR by Phenotypic Approach on LASSBio-1586 Homologs” (Pharmaceuticals, 2022).
Values joined by “and” are separate entries in the source; they are usually repeats but may differ in a detail not shown here. Equal entries are not always repeated. Where two headings read alike, the source gives them in different places.

What was measured:
HL-60 = assay: MTT cell viability assay, HL-60; format: cell-based, human; conditions: Homo sapiens, MTT, value (95% CI), read-out: CC50 (µM) (CI) HL-60
Description: (§1) The cytotoxic activity of compounds 3–13 was determined based on an MTT assay against different human tumor cell lines, using LASSBio-1586 (2), LASSBio-1735 (3), CA-4 (1) and pelitinib as standards (Table 2). To determine the cytotoxic selectivity index, compounds were also evaluated toward human lymphocytes (Table 3).
(§2) The target compounds were tested (0.0001–100 µM) for cytotoxic activity against selected human cancer cell lines, such as HL-60 (acute promyelocytic leukemia), MCF-7 (mammary adenocarcinoma), PC-3 (prostate adenocarcinoma), H1975 (non-small cell lung cancer—EGFR^L858R+T790M), PC-9 (non-small cell lung cancer—EGFR^L858R) H292 (mucoepidermoid pulmonary carcinoma—EGFR wild type), LoVo (colorectal adenocarcinoma—EGFRwild type) and GM16000 (lymphocyte). All the human cancer cell lines were purchased from Cell Bank of Rio de Janeiro—BCRJ. They were cultured in RPMI 1640 medium with 10% (v/v) FBS, 2 mM glutamine, at 37 °C in a humidified incubator containing 5% CO2.
(§3) The cytotoxicity of the compounds was evaluated by the MTT assay. […] For lymphocytic lines, a density of 0.3 × 10^6 cells/mL was used. Afterwards they were treated with varying concentrations of the target compounds 2–12 (0.0001–100 µM), CA-4 (1) and pelitinib at 37 °C, in triplicate. The medium was incubated with 20 μL of 5 mg/mL MTT solution for 3 h in a humidified incubator containing 5% CO2 [11].
(§4) The purple-colored formazan crystals formed in the wells were dissolved in DMSO and their absorbance was measured at 595 nm with a microplate reader (SpectraMax M5, Molecular Devices).

H1975 = assay: MTT cell viability assay, H1975; format: cell-based, human; conditions: MTT, value (95% CI), read-out: CC50 (µM) (CI) H1975
Description: as §1, §2, §3, §4

H292 = assay: MTT cell viability assay, H292; format: cell-based, human; conditions: MTT, value (95% CI), read-out: CC50 (µM) (CI) H292
Description: as §1, §2, §3, §4

LoVo [1] = assay: MTT cell viability assay, LoVo; format: cell-based; conditions: Homo sapiens, MTT, 72 h, value (95% CI), read-out: CC50 (µM) (CI) LoVo
Description: as §1, §2
(§5) The cytotoxicity of the compounds was evaluated by the MTT assay. The cell lines were cultured in 96 well plates for 72 h with a density of 0.1 × 10^5 cells/mL to 0.7 × 10^5 cells/mL to adherent cell lines. For lymphocytic lines, a density of 0.3 × 10^6 cells/mL was used. Afterwards they were treated with varying concentrations of the target compounds 2–12 (0.0001–100 µM), CA-4 (1) and pelitinib at 37 °C, in triplicate. The medium was incubated with 20 μL of 5 mg/mL MTT solution for 3 h in a humidified incubator containing 5% CO2 [11].
as §4

MCF-7 = assay: MTT cell viability assay, MCF-7; format: cell-based, human; conditions: Homo sapiens, MCF7, 72 h, MTT, 72 h; value (95% CI); read-out: CC50 (µM) (CI) MCF-7
Description: as §1, §2, §5, §4

PC-3 = assay: MTT cell viability assay, PC-3; format: cell-based; conditions: Homo sapiens, PC-3; MTT, 72 h; value (95% CI); read-out: CC50 (µM) (CI) PC-3
Description: as §1, §2, §5, §4

PC-9 = assay: MTT cell viability assay, PC-9; format: cell-based, human; conditions: MTT, value (95% CI), read-out: CC50 (µM) (CI) PC-9
Description: as §1, §2, §3, §4

[2] = MTT cell viability assay, GM16000 lymphocytes; format: cell-based; conditions: GM16000 lymphocyte cells (non-tumor), human lymphocytes, value (95% CI)
Description: as §1
To establish the cytotoxic selective index (SI) of LASSBio-1586 homologs, they were studied on human lymphocyte cell lines (GM16000), using the MTT assay. The SI was calculated by the ratio between the CC50 on tumor and non-tumor cell lines. Although there is no consensus, values of SI ≥ 10 is considered satisfactory to assign safety to a new cytotoxic agent. This value means that the compound is more than ten times more cytotoxic to the tumor cell line than to normal cell line.
as §2, §5, §4

LoVo [3] = assay: MTT cell viability assay, LoVo; format: cell-based; conditions: Homo sapiens, 48 h, value (95% CI)
[4] = MTT cell viability assay, GM16000 lymphocytes; format: cell-based; conditions: GM16000 lymphocyte cells (non-tumor), human lymphocytes, value (95% CI); remark: listed apart in the source
H1975 cells = assay: Immunofluorescence of β-tubulin / microtubules; format: cell-based, human; conditions: H1975, 48 h; CA-4 0.3 µM, vincristine 0.5 µM, taxol 0.1 µM, LASSBio-1586 10 µM, LASSBio-1735 0.5 µM, LASSBio-2070 4.5 µM, LASSBio-2074 20 µM
Description: Antitubulin agents have been broadly classified into destabilizing or stabilizing agents, based on their interference with the dynamic balance of polymerization or depolymerization of microtubules. […] CA-4 (1, 0.3 µM), vincristine (0.5 µM) and taxol (0.1 µM) were used as standard controls.
After incubation, cells were rinsed with PBS and fixed with 4% paraformaldehyde in PBS for 10 min at room temperature. They were then permeabilized with 0.5% Triton-X 100 in PBS 3 times for 10 min. The same solution was used for all subsequent washing steps. Cells were incubated with an anti-beta-tubulin antibody for 1 h at 37 °C. After incubation, cells were washed for 30 min and incubated with Alexa Fluor® 488, conjugated secondary antibody for 1 h at 37 °C, and nuclei were labeled with DAPI (0.1 mg/mL in 0.9% NaCl).
Live cultured cells grown in coverslips were mounted in Prolong Gold solution (Molecular Probes, USA) and were imaged on a Leica TCS SPE confocal microscope (Leica Microsystems, Germany) using 63x 1.3 N.A. oil immersion and the images acquired by the LAS X software. Cell morphology, focusing on the microtubules was analyzed, qualitatively, using the public domain NIH ImageJ Program (developed at the National Institutes of the USA Health and available on the internet at http://imagej.nih.gov/ij/ (accessed on 1 September 2021).

[5] = Homo sapiens, NCI-H1975, 48 h, 48 h
[6] = Homo sapiens, NCI-H1975, 72 h, 72 h
[7] = Homo sapiens, NCI-H292, 48 h, 48 h
[8] = Homo sapiens, NCI-H292, 72 h, 72 h

SMILES	CC50 (HL-60; HL-60, 48 h, 48 h) [µM]	CC50 (HL-60; HL-60, 72 h, 72 h) [µM]	CC50 (H1975; [5]) [µM]	CC50 (H1975; [6]) [µM]	CC50 (H292; [7]) [µM]	CC50 (H292; [8]) [µM]	CC50 (LoVo [1]) [µM]	CC50 (MCF-7) [µM]	CC50 (PC-3) [µM]	CC50 (PC-9; Homo sapiens, PC-9, 48 h, 48 h) [µM]	CC50 (PC-9; Homo sapiens, PC-9, 72 h, 72 h) [µM]	CC50 at 72 h [2] [µM]	CC50 (LoVo [3]) [µM]	CC50 at 48 h [4] [µM]	melting point	CC50 (H1975; 48 h) [µM]	CC50 (H292; 48 h) [µM]	CC50 (PC-9; 48 h) [µM]	cell morphology after treatment (H1975 cells)	effect on microtubules (stabilizing / destabilizing profile) (H1975 cells)
CCCCN(/N=C/c1ccccc1)C(=O)c1cc(OC)c(OC)c(OC)c1 [LASSBio-2121 (6), (E)-N’-benzylidene-N-butyl-3,4,5-trimethoxybenzohydrazide]	2.61	2.17	1.71	2.94	0.215	9.55	0.5	0.5	0.696	0.327	0.096	0.961	2	1.2	–	–	–	–	–	–
CCOc1cc2ncc(C#N)c(Nc3ccc(F)c(Cl)c3)c2cc1NC(=O)/C=C/CN(C)C [Pelitinib, reference compound]	3.42	2.08	2.57	0.512	0.48	0.0784	0.037	3.91	2.48	0.325	0.0591	2.75	1.7	0.899	–	–	–	–	–	–
CCCN(/N=C/c1ccccc1)C(=O)c1cc(OC)c(OC)c(OC)c1 [LASSBio-2118 (5), (E)-N’-benzylidene-3,4,5-trimethoxy-N-propylbenzohydrazide]	1.46	0.301	1.12	0.775	0.181	3.72	0.031	0.144	0.432	0.263	0.136	0.843	0.74	1.1	–	–	–	–	–	–
C#CCN(/N=C/c1ccccc1)C(=O)c1cc(OC)c(OC)c(OC)c1 [LASSBio-2072 (9), (E)-N’-benzylidene-3,4,5-trimethoxy-N-(prop-2-yn-1-yl)benzohydrazide]	5.85	0.158	5.34	3.98	0.45	3.14	0.399	2.32	2.25	1.27	0.46	0.612	3.05	2.52	133.91 °C and 133 to 134 °C	–	–	–	–	–
CCN(/N=C/c1ccccc1)C(=O)c1cc(OC)c(OC)c(OC)c1 [LASSBio-2071 (4), (E)-N’-benzylidene-N-ethyl-3,4,5-trimethoxybenzohydrazide]	6.03	0.231	–	4.86	–	2.55	0.301	1.24	1.66	–	0.384	5.13	3.05	2	83.94 °C and 83 to 84 °C	4.91	0.3	0.881	–	–
COc1cc(C(=O)N(CCN2CCOCC2)/N=C/c2ccccc2)cc(OC)c1OC [LASSBio-2122 (12), (E)-N’-benzylidene-3,4,5-trimethoxy-N-(2-morpholinoethyl)benzohydrazide]	5.09	4.15	6.37	2.48	0.412	2.79	0.421	4.11	2.4	1.5	0.871	5.65	1.05	3.8	–	–	–	–	–	–
CC(=O)O[C@H]1C(=O)[C@@]2(C)[C@H]([C@H](OC(=O)c3ccccc3)[C@]3(O)C[C@H](OC(=O)[C@H](O)[C@@H](NC(=O)c4ccccc4)c4ccccc4)C(C)=C1C3(C)C)[C@]1(OC(C)=O)CO[C@@H]1C[C@@H]2O [taxol, reference compound]	–	–	–	–	–	–	–	–	–	–	–	–	–	–	–	–	–	–	more spread-out morphology	–
CC[C@]1(O)C[C@H]2CN(CCc3c([nH]c4ccccc34)[C@@](C(=O)OC)(c3cc4c(cc3OC)N(C=O)[C@H]3[C@@](O)(C(=O)OC)[C@H](OC(C)=O)[C@]5(CC)C=CCN6CC[C@]43[C@@H]65)C2)C1 [vincristine, reference compound]	–	–	–	–	–	–	–	–	–	–	–	–	–	–	–	–	–	–	rounded shape	typical response of microtubule destabilizing agents
C=CCN(/N=C/c1ccccc1)C(=O)c1cc(OC)c(OC)c(OC)c1 [LASSBio-2069 (8), (E)-N-allyl-N’-benzylidene-3,4,5-trimethoxybenzohydrazide]	0.526	1.35	1.65	3.74	0.154	0.778	0.298	1.6	0.462	0.276	0.387	0.83	0.808	0.095	64.47 °C and 64 to 65 °C	–	–	–	–	–
